Calls of active or inactive are those of the source. No cut-off for these calls is given here. Residues, ends and D or L forms follow the SMILES beside them. *: point of attachment. Acetyl(thymin-1-yl) = Cc1cn(CC(=O)*)c(=O)[nH]c1=O
Columns and labels:
[1] = Binding affinity to poly rA RNA (unknown origin) at 2:1 compound to RNA ratio assessed as melting temperature by circular dichroism analysis
[2] = Binding affinity to dA12 DNA (unknown origin) at 2.5:1 compound to DNA ratio by circular dichroism analysis
[3] = Binding affinity to […] RNA (unknown origin) at 1.5:1 compound to RNA ratio by circular dichroism analysis
[4] = Binding affinity to dA12 DNA (unknown origin) at 10 uM assessed as melting temperature by UV analysis
[5] = Binding affinity to poly rA RNA (unknown origin) at 24 nM by circular dichroism analysis
[6] = Binding affinity to dT12 DNA (unknown origin) at 24 nM by circular dichroism analysis
[7] = Binding affinity to dA12 DNA (unknown origin) at 24 nM by circular dichroism analysis
[8] = Binding affinity to […] RNA (unknown origin) by surface plasmon resonance assay
[9] = Binding affinity to poly rA RNA (unknown origin) at 2:1 compound to RNA ratio by circular dichroism analysis
[10] = Binding affinity to […] RNA (unknown origin) at 2:1 compound to RNA ratio by circular dichroism analysis
[11] = Binding affinity to […] RNA (unknown origin) at 12.8 uM assessed as melting temperature by UV analysis
[12] = Binding affinity to poly rA RNA (unknown origin) by surface plasmon resonance assay
[13] = Half life in 94% human serum at 14 uM; assay type: ADME

Cc1cn(CC(=O)NCCCC[C@H](NC(=O)[C@H](CCCCN)NC(=O)[C@H](CCCCNC(=O)Cn2cc(C)c(=O)[nH]c2=O)NC(=O)[C@H](CCCCN)NC(=O)[C@H](CCCCNC(=O)Cn2cc(C)c(=O)[nH]c2=O)NC(=O)[C@H](CCCCN)NC(=O)[C@H](CCCCNC(=O)Cn2cc(C)c(=O)[nH]c2=O)NC(=O)[C@H](CCCCN)NC(=O)[C@H](CCCCNC(=O)Cn2cc(C)c(=O)[nH]c2=O)NC(=O)[C@H](CCCCN)NC(=O)[C@@H](N)CCCCNC(=O)Cn2cc(C)c(=O)[nH]c2=O)C(=O)N[C@@H](CCCCN)C(N)=O)c(=O)[nH]c1=O (H-K(Acetyl(thymin-1-yl))KK(Acetyl(thymin-1-yl))KK(Acetyl(thymin-1-yl))KK(Acetyl(thymin-1-yl))KK(Acetyl(thymin-1-yl))KK(Acetyl(thymin-1-yl))K-NH2)
Tm [1]: 35 °C
Activity [2]: Active
Activity [3]: Active
Tm [4]: 25 °C
Activity [5]: Active
Activity [6]: Active
Activity [7]: Active
Activity [8]: Active
Activity [9]: Active
Activity [10]: Active
Tm [11]: 27 °C
Activity [12]: Active
half-life at 14 µM [13]: 45 min

Reference: ChEMBL document CHEMBL3102777, “Binding ability of a thymine-functionalized oligolysine towards nucleic acids” (Bioorg Med Chem, 2014)
